Results as given in article PMC3794980, “Identification of Conserved and HLA Promiscuous DENV3 T-Cell Epitopes” (PLoS Neglected Tropical Diseases, 2013).
Where two headings read alike, the source gives them in different places.

What was measured:
Test in all cases: biochemical
Format in all cases: binding
DRB3*0101 = DRB3*0101 (Homo sapiens, UniProt P01903+P79483)
DRB1*0401 = DRB1*0401 (Homo sapiens, UniProt P01903+P01911, A100K/A169T/F76Y/I96L/K127E/L162R/M171V/N62H/P40V/Q125Y/R42H/S133A/S149N/S66Y/V115G/V209L/W38E)
DRB1*0301 = DRB1*0301 (Homo sapiens, UniProt P01903+P01911, A100K/A102G/A103R/A169T/F55Y/I96L/K41T/L162R/M171V/P40S/Q125H/Q178H/Q39Y/R42S/S66N/T106N/T262R/W38E/Y61H)
DRB1*0301, sequence (P01903 26-254, other chains not shown): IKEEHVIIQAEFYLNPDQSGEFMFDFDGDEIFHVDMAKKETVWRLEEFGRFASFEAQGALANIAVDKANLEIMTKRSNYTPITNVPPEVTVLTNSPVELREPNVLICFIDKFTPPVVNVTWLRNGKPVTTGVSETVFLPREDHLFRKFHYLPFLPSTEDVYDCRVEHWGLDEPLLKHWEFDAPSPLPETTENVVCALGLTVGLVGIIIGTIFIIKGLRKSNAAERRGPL

DRB1*0701 = DRB1*0701 (Homo sapiens, UniProt P01903+P01911, A100R/A102G/A103Q/D57E/D86V/E43K/F76Y/K127E/L162R/M171V/P40G/Q125H/Q99D/R33Q/R42Y/R54Q/S133A/S66F/T210M/V115G/Y107V/Y59L/Y89S)
DRB1*0101 = DRB1*0101 (Homo sapiens, UniProt P01903+P01911, A100R/D57E/F55L/F60I/F76Y/I96L/L162R/M171V/P40L/Q125E/R42F/V115G/Y59C)
DRB1*1302 = DRB1*1302 (Homo sapiens, UniProt P01903+P01911, A100E/A169T/K41T/L162R/M171V/P40S/Q125H/Q178H/Q39Y/Q99D/R42S/S66N/T262R/V115G/W38E/Y61H)
DRB1*1302, sequence (P01903 26-254 limits assumed, other chains not shown): as the sequence (P01903 26-254, other chains not shown) above

DRB4*0101 = DRB4*0101 (Homo sapiens, UniProt P01903+P13762, G164S)
DRB1*0404 = DRB1*0404 (Homo sapiens, UniProt P01903+P01911, A100R/A169T/F76Y/I96L/K127E/L162R/M171V/N62H/P40V/Q125Y/R42H/S133A/S149N/S66Y/V209L/W38E)
DRB1*0405 = DRB1*0405 (Homo sapiens, UniProt P01903+P01911, A100R/A169T/D86S/F76Y/I96L/K127E/L162R/M171V/N62H/P40V/Q125Y/R42H/S133A/S149N/S66Y/V115G/V209L/W38E)
DRB1*1101 = DRB1*1101 (Homo sapiens, UniProt P01903+P01911, A100R/A169T/A87E/I96F/K41T/L162R/M171V/P40S/Q125H/Q178H/Q39Y/Q99D/R42S/S66Y/T262R/V115G/W38E)
DRB1*1101, sequence (P01903 26-254, other chains not shown): as above

DRB1*0802 = DRB1*0802 (Homo sapiens, UniProt P01903+P01911, A100R/A103L/A169T/F76Y/H45Y/I96F/K41T/L162R/M171V/P40S/Q125H/Q178H/Q39Y/Q99D/R218S/R42G/S66Y/V115G/W38E)
DRB1*0901 = DRB1*0901 (Homo sapiens, UniProt P01903+P01911, A100R/A103E/D57H/D86V/F55Y/F60I/F76Y/I96F/K127E/L162R/M171V/P40D/Q125H/Q99R/R33Q/R42F/S133A/S66N/T210M/V115G/W38K/Y107V/Y59G/Y89S)
DRB5*0101 = DRB5*0101 (Homo sapiens, UniProt P01903+Q30154)
DRB1*1501 = DRB1*1501 (Homo sapiens, UniProt P01903+P01911)
[1] = competitive inhibition of radiolabeled standard peptide, '-' distinct from ND, read-out: Binding Affinity (nM) DRB1*1302

SMILES	IC50 (DRB3*0101)	IC50 (DRB1*0401)	IC50 (DRB1*0301)	IC50 (DRB1*0701)	IC50 (DRB1*0101)	IC50 (DRB1*1302; [1])	IC50 (DRB4*0101)	IC50 (DRB1*0404)	IC50 (DRB1*0405)	IC50 (DRB1*1101)	IC50 (DRB1*0802)	IC50 (DRB1*0901; competitive inhibition of radiolabeled standard peptide, '-' distinct from ND, read-out: Binding Affinity (nM) DRB1*0901)	IC50 (DRB5*0101)	IC50 (DRB1*1302)	IC50 (DRB1*1501)	IC50 (DRB1*0901)
CC[C@H](C)[C@H](NC(=O)[C@H](CC(C)C)NC(=O)[C@H](CCCCN)NC(=O)CN)C(=O)N[C@@H](Cc1c[nH]cn1)C(=O)N[C@@H](CCC(=O)O)C(=O)N[C@@H](Cc1c[nH]c2ccccc12)C(=O)N[C@@H](CS)C(=O)N[C@@H](CS)C(=O)N[C@@H](CCCNC(=N)N)C(=O)N[C@@H](CO)C(=O)N[C@@H](CS)C(=O)N[C@H](C(=O)N[C@@H](CC(C)C)C(=O)N1CCC[C@H]1C(=O)O)[C@@H](C)O [NS1 305-319]	1240 nM	1770 nM	841 nM	1200 nM	2600 nM	3190 nM	2040 nM	4390 nM	3500 nM	4400 nM	7200 nM	11400 nM	6170 nM	–	–	–
CC(C)C[C@H](NC(=O)[C@H](CCCNC(=N)N)NC(=O)[C@H](Cc1c[nH]cn1)NC(=O)[C@H](CC(=O)O)NC(=O)[C@H](CS)NC(=O)[C@H](CC(C)C)NC(=O)[C@H](CCC(N)=O)NC(=O)[C@@H](NC(=O)[C@H](Cc1ccc(O)cc1)NC(=O)[C@@H](NC(=O)[C@H](CCC(=O)O)NC(=O)[C@H](CCCNC(=N)N)NC(=O)[C@H](CC(C)C)NC(=O)[C@H](CCCCN)NC(=O)[C@@H](N)CC(C)C)C(C)C)[C@@H](C)O)C(=O)O [NS1 169-183]	747 nM	474 nM	2360 nM	136 nM	226 nM	9960 nM	878 nM	457 nM	277 nM	4800 nM	2580 nM	–	1300 nM	–	–	–
CC[C@H](C)[C@H](NC(=O)[C@H](C)N)C(=O)N[C@@H](CCC(N)=O)C(=O)N[C@@H](CCC(N)=O)C(=O)N[C@H](C(=O)N[C@@H](CCCNC(=N)N)C(=O)N[C@@H](CO)C(=O)N[C@@H](CC(C)C)C(=O)N[C@H](C(=O)NCC(=O)N[C@@H](CC(N)=O)C(=O)N[C@@H](CCC(=O)O)C(=O)N[C@@H](CCC(=O)O)C(=O)N[C@@H](Cc1ccccc1)C(=O)N[C@@H](CC(C)C)C(=O)N[C@@H](CC(=O)O)C(=O)N[C@@H](Cc1ccc(O)cc1)C(=O)O)[C@@H](C)CC)C(C)C [NS5 866-882]	8090 nM	12 nM	178 nM	–	4.3 nM	–	2020 nM	–	–	421 nM	–	–	–	543 nM	148 nM	66 nM
CSCC[C@H](NC(=O)CNC(=O)[C@H](CCCCN)NC(=O)[C@H](CC(C)C)NC(=O)[C@H](CCC(=O)O)NC(=O)[C@H](CC(C)C)NC(=O)[C@H](CCCCN)NC(=O)[C@H](CC(=O)O)NC(=O)[C@H](CCSC)NC(=O)[C@H](CCCCN)NC(=O)[C@H](CC(C)C)NC(=O)[C@H](CCCNC(=N)N)NC(=O)[C@H](CS)NC(=O)[C@H](CCCCN)NC(=O)[C@@H](N)CC(C)C)C(=O)O [Envelope 281-295]	31 nM	2910 nM	17 nM	2160 nM	–	–	–	13200 nM	9740 nM	3330 nM	4460 nM	–	2500 nM	915 nM	652 nM	7010 nM
